# Experiments:
# Adenosine receptor A2a = Adenosine receptor A2a (Homo sapiens, UniProt P29274); assay: Agonist activity at human wild-type A2A receptor expressed in CHO-K1 cells assessed as cAMP level by HTRF assay; format: functional, cell-based
# [1] = biological target: 5-hydroxytryptamine receptor 2A (Homo sapiens, UniProt P28223); assay: Agonist activity at human 5-HT2A receptor expressed in CHO-K1 cells assessed as calcium level by FDSS assay; format: functional, cell-based
# [2] = biological target: T1, Muscarinic acetylcholine receptor M2 (Homo sapiens, UniProt P08172); assay: Agonist activity at human wild-type M2 receptor expressed in CHO-K1 cells assessed as cAMP level by HTRF assay; format: functional, cell-based
# T1 sequence (P08172 whole entry): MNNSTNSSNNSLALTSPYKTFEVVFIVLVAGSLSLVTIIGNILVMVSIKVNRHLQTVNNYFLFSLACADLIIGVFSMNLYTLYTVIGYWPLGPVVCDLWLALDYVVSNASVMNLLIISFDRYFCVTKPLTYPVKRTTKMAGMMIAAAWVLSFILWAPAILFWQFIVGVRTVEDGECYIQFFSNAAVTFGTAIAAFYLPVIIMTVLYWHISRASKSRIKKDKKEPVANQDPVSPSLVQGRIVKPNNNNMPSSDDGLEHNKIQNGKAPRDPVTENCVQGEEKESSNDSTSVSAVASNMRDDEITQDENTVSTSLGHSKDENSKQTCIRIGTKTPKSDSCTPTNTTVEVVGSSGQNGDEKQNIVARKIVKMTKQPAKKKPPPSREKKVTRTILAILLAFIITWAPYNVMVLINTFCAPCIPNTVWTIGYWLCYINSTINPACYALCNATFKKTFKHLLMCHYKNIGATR
# Liver microsome = assay: Metabolic stability in human liver microsomes assessed as CN adduct formation at 40 uM for 1 hr by LC/MS analysis; format: ADME
# [3] = biological target: T2, Cholecystokinin receptor type A (Homo sapiens, UniProt P32238); assay: Antagonist activity at human wild-type CCKA receptor expressed in CHO-K1 cells assessed as CCK8-induced calcium by FDSS assay; format: functional, cell-based
# T2 sequence (P32238 whole entry): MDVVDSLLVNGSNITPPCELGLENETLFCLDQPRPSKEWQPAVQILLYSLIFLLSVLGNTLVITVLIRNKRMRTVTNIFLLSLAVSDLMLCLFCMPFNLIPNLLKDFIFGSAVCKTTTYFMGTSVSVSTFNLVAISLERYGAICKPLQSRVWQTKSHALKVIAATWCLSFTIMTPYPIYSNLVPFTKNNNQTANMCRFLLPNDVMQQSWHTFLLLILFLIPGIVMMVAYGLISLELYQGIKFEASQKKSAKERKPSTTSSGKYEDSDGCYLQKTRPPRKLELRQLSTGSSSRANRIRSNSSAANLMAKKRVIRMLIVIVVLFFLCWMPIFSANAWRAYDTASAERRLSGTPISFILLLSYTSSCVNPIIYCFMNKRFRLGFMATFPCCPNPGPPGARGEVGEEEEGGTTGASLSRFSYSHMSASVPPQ
# Vasopressin V1a receptor = Vasopressin V1a receptor (Homo sapiens, UniProt P37288); assay: Agonist activity at human wild-type AVPR1A receptor expressed in CHO-K1 cells assessed as calcium level by FDSS assay; format: functional, cell-based
# Vasopressin V1a receptor, sequence (P37288 whole entry): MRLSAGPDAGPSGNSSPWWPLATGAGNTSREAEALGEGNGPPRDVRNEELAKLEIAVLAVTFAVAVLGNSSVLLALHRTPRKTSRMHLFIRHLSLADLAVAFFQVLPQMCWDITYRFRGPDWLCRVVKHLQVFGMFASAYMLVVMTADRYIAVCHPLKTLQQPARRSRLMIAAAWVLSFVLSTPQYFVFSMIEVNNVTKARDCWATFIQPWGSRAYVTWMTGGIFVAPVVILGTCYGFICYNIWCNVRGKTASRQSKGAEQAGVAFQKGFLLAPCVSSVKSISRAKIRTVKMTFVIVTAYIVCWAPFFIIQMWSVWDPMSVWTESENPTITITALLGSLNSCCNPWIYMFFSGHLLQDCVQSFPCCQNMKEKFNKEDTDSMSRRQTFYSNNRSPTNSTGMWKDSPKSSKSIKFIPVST
# [4] = biological target: T3, Alpha-2C adrenergic receptor (Homo sapiens, UniProt P18825); assay: Antagonist activity at human wild-type alpha 2C receptor expressed in CHO-K1 cells assessed as epinephrine-induced cAMP by HTRF assay; format: functional, cell-based
# T3 sequence (P18825 whole entry): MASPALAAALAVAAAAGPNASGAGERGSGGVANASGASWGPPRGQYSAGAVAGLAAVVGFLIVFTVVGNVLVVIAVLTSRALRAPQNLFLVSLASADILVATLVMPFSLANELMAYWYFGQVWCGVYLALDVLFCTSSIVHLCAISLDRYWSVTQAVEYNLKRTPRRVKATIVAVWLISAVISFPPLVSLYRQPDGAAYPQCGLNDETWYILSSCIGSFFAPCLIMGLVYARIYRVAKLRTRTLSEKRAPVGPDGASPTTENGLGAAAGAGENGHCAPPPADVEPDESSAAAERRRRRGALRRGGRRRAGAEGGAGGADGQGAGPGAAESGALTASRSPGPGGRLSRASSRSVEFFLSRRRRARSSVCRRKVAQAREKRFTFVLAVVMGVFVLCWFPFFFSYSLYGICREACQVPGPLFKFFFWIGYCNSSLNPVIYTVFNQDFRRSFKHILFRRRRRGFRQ
# [5] = biological target: T4, Type-1 angiotensin II receptor (Homo sapiens, UniProt P30556); assay: Agonist activity at human wild-type AGTR1 receptor expressed in CHO-K1 cells assessed as calcium level by FDSS assay; format: functional, cell-based
# T4 sequence (P30556 whole entry): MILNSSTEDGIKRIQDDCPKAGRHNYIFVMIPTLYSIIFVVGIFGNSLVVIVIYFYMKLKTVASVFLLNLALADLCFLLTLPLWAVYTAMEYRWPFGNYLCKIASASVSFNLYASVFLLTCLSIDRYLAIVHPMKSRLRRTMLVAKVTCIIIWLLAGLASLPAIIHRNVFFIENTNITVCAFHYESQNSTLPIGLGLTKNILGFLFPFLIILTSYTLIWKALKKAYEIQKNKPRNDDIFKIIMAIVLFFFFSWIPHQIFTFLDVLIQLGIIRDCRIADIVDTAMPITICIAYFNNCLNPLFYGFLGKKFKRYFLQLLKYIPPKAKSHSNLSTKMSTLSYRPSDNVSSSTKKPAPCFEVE
# Cytochrome P450 2C19 = Cytochrome P450 2C19 (Homo sapiens, UniProt P33261); assay: Inhibition of human CYP2C19 by LC-MS analysis; format: ADME
# Cytochrome P450 2C19, sequence (P33261 whole entry): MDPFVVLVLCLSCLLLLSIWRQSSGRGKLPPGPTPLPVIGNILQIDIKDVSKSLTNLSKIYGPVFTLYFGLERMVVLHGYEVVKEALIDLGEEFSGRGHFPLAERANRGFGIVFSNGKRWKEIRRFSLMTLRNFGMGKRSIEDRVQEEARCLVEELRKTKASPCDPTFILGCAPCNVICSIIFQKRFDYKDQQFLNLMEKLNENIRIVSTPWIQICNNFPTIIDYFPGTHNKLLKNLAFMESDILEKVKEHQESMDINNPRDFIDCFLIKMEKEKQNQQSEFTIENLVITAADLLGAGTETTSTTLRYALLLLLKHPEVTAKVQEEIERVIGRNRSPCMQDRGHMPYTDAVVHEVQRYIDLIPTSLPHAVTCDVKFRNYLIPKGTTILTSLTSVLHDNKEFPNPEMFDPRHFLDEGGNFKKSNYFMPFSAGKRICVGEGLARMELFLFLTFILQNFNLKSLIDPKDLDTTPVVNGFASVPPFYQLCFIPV
# [6] = biological target: T5, 5-hydroxytryptamine receptor 2C (Homo sapiens, UniProt P28335); assay: Antagonist activity at human 5-HT2C receptor expressed in CHO-K1 cells assessed as seretonin-induced calcium level by FDSS assay; format: functional, cell-based
# T5 sequence (P28335 whole entry): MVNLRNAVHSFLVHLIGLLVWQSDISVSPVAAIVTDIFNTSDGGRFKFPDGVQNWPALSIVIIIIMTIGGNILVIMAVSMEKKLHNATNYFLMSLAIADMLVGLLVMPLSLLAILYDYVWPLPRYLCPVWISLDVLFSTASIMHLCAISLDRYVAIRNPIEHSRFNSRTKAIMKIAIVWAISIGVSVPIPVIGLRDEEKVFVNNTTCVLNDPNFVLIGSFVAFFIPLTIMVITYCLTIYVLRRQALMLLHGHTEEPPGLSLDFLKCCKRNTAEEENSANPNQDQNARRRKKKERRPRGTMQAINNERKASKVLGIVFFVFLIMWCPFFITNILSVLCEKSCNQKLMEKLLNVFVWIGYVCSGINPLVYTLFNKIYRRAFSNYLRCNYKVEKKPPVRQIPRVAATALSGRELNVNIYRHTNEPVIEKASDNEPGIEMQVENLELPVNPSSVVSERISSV
# D(2) dopamine receptor = D(2) dopamine receptor (Homo sapiens, UniProt P14416); assay: Agonist activity at human wild-type D2 receptor expressed in CHO-K1 cells assessed as cAMP level by HTRF assay; format: functional, cell-based
# D(2) dopamine receptor, sequence (P14416 whole entry): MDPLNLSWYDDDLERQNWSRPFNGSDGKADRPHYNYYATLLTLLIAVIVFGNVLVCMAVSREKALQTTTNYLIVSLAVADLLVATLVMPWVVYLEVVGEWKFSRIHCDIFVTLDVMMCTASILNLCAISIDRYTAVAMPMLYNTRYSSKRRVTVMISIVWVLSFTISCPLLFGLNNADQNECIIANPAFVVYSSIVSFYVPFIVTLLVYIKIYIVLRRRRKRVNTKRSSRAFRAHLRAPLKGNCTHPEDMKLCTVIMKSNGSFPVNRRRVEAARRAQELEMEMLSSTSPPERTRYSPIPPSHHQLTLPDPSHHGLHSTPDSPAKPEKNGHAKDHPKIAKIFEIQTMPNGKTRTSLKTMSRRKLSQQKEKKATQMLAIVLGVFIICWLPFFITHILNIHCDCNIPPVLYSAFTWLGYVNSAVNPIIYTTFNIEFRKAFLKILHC
# 5-hydroxytryptamine receptor 2A, sequence (P28223 whole entry): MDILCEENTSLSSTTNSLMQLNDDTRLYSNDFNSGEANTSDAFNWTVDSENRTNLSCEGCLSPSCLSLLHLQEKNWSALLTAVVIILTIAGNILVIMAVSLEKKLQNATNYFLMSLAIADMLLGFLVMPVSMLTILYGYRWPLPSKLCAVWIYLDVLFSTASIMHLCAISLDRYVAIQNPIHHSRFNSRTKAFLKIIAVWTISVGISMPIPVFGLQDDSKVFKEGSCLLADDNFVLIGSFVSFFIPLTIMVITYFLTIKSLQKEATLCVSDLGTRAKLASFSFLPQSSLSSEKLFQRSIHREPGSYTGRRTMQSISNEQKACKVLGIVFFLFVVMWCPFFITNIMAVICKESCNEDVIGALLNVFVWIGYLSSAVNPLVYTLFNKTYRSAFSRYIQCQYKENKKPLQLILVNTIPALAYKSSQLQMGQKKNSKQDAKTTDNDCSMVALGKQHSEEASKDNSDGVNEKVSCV
# Adenosine receptor A2a, sequence (P29274 whole entry): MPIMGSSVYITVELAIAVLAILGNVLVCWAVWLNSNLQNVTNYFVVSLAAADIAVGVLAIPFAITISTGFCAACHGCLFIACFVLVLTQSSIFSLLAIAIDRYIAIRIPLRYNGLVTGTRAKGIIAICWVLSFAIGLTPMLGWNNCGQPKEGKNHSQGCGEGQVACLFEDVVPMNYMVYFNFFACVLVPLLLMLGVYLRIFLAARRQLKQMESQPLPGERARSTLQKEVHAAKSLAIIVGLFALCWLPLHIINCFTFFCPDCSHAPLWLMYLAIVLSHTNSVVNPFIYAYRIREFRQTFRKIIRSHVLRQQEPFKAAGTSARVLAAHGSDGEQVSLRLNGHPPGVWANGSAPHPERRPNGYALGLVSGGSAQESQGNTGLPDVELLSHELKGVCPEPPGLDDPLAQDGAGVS
Structure (SMILES),EC50 (Adenosine receptor A2a),EC50 [1],EC50 [2],Stability (Liver microsome),IC50 [3],EC50 (Vasopressin V1a receptor),IC50 [4],EC50 [5],IC50 (Cytochrome P450 2C19),IC50 [6],EC50 (D(2) dopamine receptor)
CB1C=Cc2c(cccc2OCC(O)CN(C)C)N1 (configuration not stated),> 5.01 µM,> 5.01 µM,> 5.01 µM,Stable,> 5.01 µM,> 5.01 µM,> 5.01 µM,> 5.01 µM,> 10 µM,> 5.01 µM,> 5.01 µM
CB1C=Cc2cccc(OCC(O)CNC(C)C)c2N1 (configuration not stated),> 5.01 µM,> 5.01 µM,> 5.01 µM,Stable,> 5.01 µM,> 5.01 µM,> 5.01 µM,> 5.01 µM,> 10 µM,> 5.01 µM,> 5.01 µM

# Source: ChEMBL document CHEMBL3734721 (J Med Chem, 2015)
